Molecules are shown by their SMILES.

T1 sequence (Q00987 whole entry): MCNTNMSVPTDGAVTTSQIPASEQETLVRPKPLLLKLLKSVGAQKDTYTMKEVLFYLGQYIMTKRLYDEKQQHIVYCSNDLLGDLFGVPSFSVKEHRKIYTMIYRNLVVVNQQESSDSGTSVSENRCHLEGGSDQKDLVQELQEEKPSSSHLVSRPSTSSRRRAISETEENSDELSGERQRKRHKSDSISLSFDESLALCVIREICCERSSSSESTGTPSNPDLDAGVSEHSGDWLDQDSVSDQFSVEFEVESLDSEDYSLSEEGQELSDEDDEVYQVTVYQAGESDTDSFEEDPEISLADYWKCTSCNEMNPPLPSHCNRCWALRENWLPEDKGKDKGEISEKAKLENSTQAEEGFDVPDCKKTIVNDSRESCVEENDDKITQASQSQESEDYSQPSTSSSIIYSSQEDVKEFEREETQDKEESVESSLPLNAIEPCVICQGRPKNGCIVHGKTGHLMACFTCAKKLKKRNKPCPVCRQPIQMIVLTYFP

The first experiment addresses T1, MDM2 (Homo sapiens, UniProt Q00987).
T1 construct: made in house
Briefly: Inhibition test of MDM2-P53 (GST-MDM2, Biotin-P53, Anti-GST-Tb, SA-XL665). The class given is binding.
Settings: not given
The method in brief:
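Binding was measured by TR-FRET with GST-MDM2 at 4 nM final in PBS with 0.1% BSA, 5 mM DTT and 1 mM AEBSF. Compounds were tested as twelve-point 5-fold dilutions and incubated with the detection mix for 90 min at 25 °C with shaking before plate-reader reading and curve fitting.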
As usually defined, the IC50 is the concentration at which inhibition is half-maximal. Higher therefore signals a need for much substance. Molecule `COc1cc(C(C)C)ncc1-c1nc2c(n1C(C)C)[C@]1(C(=O)Nc3cc(Cl)ccc31)N(c1cc(Cl)ccc1C)C2=O` [Example R-164, (R)-6-chloro-5′-(5-chloro-2-methylphenyl)-3′-isopropyl-2′-(6-isopropyl-4-methoxypyridin-3-yl)-3′H-spiro[dihydroindole-3,4′-pyrrolo[3,4-d]imidazole]-2,6′(5′H)-dione] yielded a half-inhibitory concentration (IC50) of 592 nM. That is a sub-micromolar value.
The molecule `COc1cc(C(C)C)ncc1-c1nc2c(n1C(C)C)[C@]1(C(=O)Nc3cc(Cl)ccc31)N(c1cc(Cl)cnc1C)C2=O` [Example R-166, (R)-6-chloro-5′-(5-chloro-2-methylpyridin-3-yl)-3′-isopropyl-2′-(6-isopropyl-4-methoxypyridin-3-yl)-3′H-spiro[dihydroindole-3,4′-pyrrolo[3,4-d]imidazole]-2,6′(5′H)-dione] had an IC50 of 957 nM. Compared with the last molecule, the IC50 is about 1.6-fold higher.
Molecule `COc1nc(OCCF)ncc1-c1nc2c(n1C(C)C)[C@]1(C(=O)Nc3cc(Cl)ccc31)N(c1cc(Cl)cnc1C)C2=O` [Example R-170, (R)-6-chloro-5′-(5-chloro-2-methylpyridin-3-yl)-2′-(2-(2-fluoroethoxy)-4-methoxypyrimidin-5-yl)-3′-isopropyl-3′H-spiro[dihydroindole-3,4′-pyrrolo[3,4-d]imidazole]-2,6′(5′H)-dione] had an IC50 of 235 nM. This IC50 is about 4.1-fold lower than that of the molecule before.
Same read-out and setting: the value for `COc1nc(OCCF)ncc1-c1nc2c(n1C(C)C)[C@]1(C(=O)Nc3cc(Cl)ccc31)N(c1cccc(Cl)c1)C2=O` [Example R-171, (R)-6-chloro-5′-(3-chlorophenyl)-2′-(2-(2-fluoroethoxy)-4-methoxypyrimidin-5-yl)-3′-isopropyl-3′H-spiro[dihydroindole-3,4′-pyrrolo[3,4-d]imidazole]-2,6′(5′H)-dione] was 8830 nM; that for `COc1nc(C(C)C)ncc1-c1nc2c(n1C(C)C)[C@]1(C(=O)Nc3cc(Cl)ccc31)N(c1cc(Cl)ccc1C)C2=O` [Example R-172, (R)-6-chloro-5′-(5-chloro-2-methylphenyl)-3′-isopropyl-2′-(2-isopropyl-4-methoxypyrimidin-5-yl)-3′H-spiro[dihydroindole-3,4′-pyrrolo[3,4-d]imidazole]-2,6′(5′H)-dione] was 408 nM; that for `COc1cc(OCCF)ncc1-c1nc2c(n1C(C)C)[C@]1(C(=O)Nc3cc(Cl)ccc31)N(c1cc(Cl)cnc1C)C2=O` [Example R-173, (R)-6-chloro-5′-(5-chloro-2-methylpyridin-3-yl)-2′-(6-(2-fluoroethoxy)-4-methoxypyridin-3-yl)-3′-isopropyl-3′H-spiro[dihydroindole-3,4′-pyrrolo[3,4-d]imidazole]-2,6′(5′H)-dione] was 528 nM.
Same read-out and setting: the value for `COc1nc(C2CC2)ncc1-c1nc2c(n1C(C)C)[C@]1(C(=O)Nc3cc(Cl)ccc31)N(c1cc(F)cc(Cl)c1)C2=O` [Example R-174, (R)-6-chloro-5′-(3-chloro-5-fluorophenyl)-2′-(2-cyclopropyl-4-methoxypyrimidin-5-yl)-3′-isopropyl-3′H-spiro[dihydroindole-3,4′-pyrrolo[3,4-d]imidazole]-2,6′(5′H)-dione] was 515 nM.
With `COc1cc(OC)c(-c2nc3c(n2C(C)C)[C@]2(C(=O)Nc4cc(Cl)ccc42)N(c2cc(F)cc(Cl)c2)C3=O)cn1` [Example R-175, (R)-6-chloro-5′-(3-chloro-5-fluorophenyl)-2′-(4,6-dimethoxypyridin-3-yl)-3′-isopropyl-3′H-spiro[dihydroindole-3,4′-pyrrolo[3,4-d]imidazole]-2,6′(5′H)-dione], half-maximal inhibition (IC50) required 522 nM.
As for `COc1cc(C2CC2)ncc1-c1nc2c(n1C(C)C)[C@]1(C(=O)Nc3cc(Cl)ccc31)N(c1cc(F)cc(Cl)c1)C2=O` [Example R-176, (R)-6-chloro-5′-(3-chloro-5-fluorophenyl)-2′-(6-cyclopropyl-4-methoxypyridin-3-yl)-3′-isopropyl-3′H-spiro[dihydroindole-3,4′-pyrrolo[3,4-d]imidazole]-2,6′(5′H)-dione], the IC50 was 321 nM.
For `COc1ncc(-c2nc3c(n2C(C)C)[C@@]2(C(=O)Nc4cc(Cl)ccc42)N(c2ccc(OC)c(Cl)c2)C3=O)c(OC)n1` [Example S-48, (S)-6-chloro-5′-(3-chloro-4-methoxyphenyl)-2′-(2,4-dimethoxypyrimidin-5-yl)-3′-isopropyl-3′H-spiro[dihydroindole-3,4′-pyrrolo[3,4-d]imidazole]-2,6′(5′H)-dione], the half-maximal inhibitory concentration (IC50) was found to be 1.46 nM. This IC50 is about 220-fold lower than that of the molecule before.
Same read-out and setting: with `COc1ncc(-c2nc3c(n2C(C)C)[C@@]2(C(=O)Nc4cc(Cl)ccc42)N(c2cc(C)ccc2C)C3=O)c(OC)n1` [Example S-56, (S)-6-chloro-2′-(2,4-dimethoxypyrimidin-5-yl)-5′-(2,5-dimethylphenyl)-3′-isopropyl-3′H-spiro[dihydroindole-3,4′-pyrrolo[3,4-d]imidazole]-2,6′(5′H)-dione] the figure was 5.19 nM.
In the case of `COc1ncc(-c2nc3c(n2C(C)C)[C@@]2(C(=O)Nc4cc(Cl)ccc42)N(c2ccc(C(N)=O)c(Cl)c2)C3=O)c(OC)n1` [Example S-60, (S)-2-chloro-4-(6-chloro-2′-(2,4-dimethoxypyrimidin-5-yl)-3′-isopropyl-2,6′-dioxo-3′,6′-dihydro-5′H-spiro[dihydroindole-3,4′-pyrrolo[3,4-d]imidazole]-5′-yl)benzamide], the midpoint of inhibition, the IC50, lay at 4.81 nM.
Still for that read-out and setting: with `COc1cc(OC)c(-c2nc3c(n2C(C)C)[C@@]2(C(=O)Nc4cc(Cl)ccc42)N(c2ccc(C(N)=O)c(Cl)c2)C3=O)cn1` [Example S-65, (S)-2-chloro-4-(6-chloro-2′-(4,6-dimethoxypyridin-3-yl)-3′-isopropyl-2,6′-dioxo-3′,6′-dihydro-5′H-spiro[dihydroindole-3,4′-pyrrolo[3,4-d]imidazole]-5′-yl)benzamide] the figure was 4.04 nM.
As for `COc1cc(C(C)C)ccc1-c1nc2c(n1C(C)C)[C@@]1(C(=O)Nc3cc(Cl)ccc31)N(c1cccc(Cl)c1)C2=O` [Example S-93, (S)-6-chloro-5′-(3-chlorophenyl)-3′-isopropyl-2′-(4-isopropyl-2-methoxyphenyl)-3′H-spiro[dihydroindole-3,4′-pyrrolo[3,4-d]imidazole]-2,6′(5′H)-dione], the midpoint of inhibition, the IC50, lay at 3.89 nM.
As for `COc1cc(F)c(-c2nc3c(n2C(C)C)[C@@]2(C(=O)Nc4cc(Cl)ccc42)N(c2cc(Cl)ccc2C)C3=O)c(OC)c1` [Example S-130, (S)-6-chloro-5′-(5-chloro-2-methylphenyl)-2′-(2-fluoro-4,6-dimethoxyphenyl)-3′-isopropyl-3′H-spiro[dihydroindole-3,4′-pyrrolo[3,4-d]imidazole]-2,6′(5′H)-dione], 5.59 nM corresponded to half-maximal inhibition (IC50).
The molecule `COc1ncc(-c2nc3c(n2C(C)C)[C@@]2(C(=O)Nc4cc(Cl)ccc42)N(c2cc(Cl)ccc2C#N)C3=O)c(OC)n1` [Example S-151, (S)-4-chloro-2-(6-chloro-2′-(2,4-dimethoxypyrimidin-5-yl)-3′-isopropyl-2,6′-dioxo-3′,6′-dihydro-5′H-spiro[dihydroindole-3,4′-pyrrolo[3,4-d]imidazole]-5′-yl)benzonitrile] registered an IC50 of 1410 nM.

The subject of the next experiment is human osteosarcoma cell line SJSA-1. The experiment is described as follows: Inhibition of proliferation of human osteosarcoma cell line SJSA-1 (DAPI staining, In Cell Analyzer). The note with it: labels are Example numbers; the compounds with S-configuration are meant.
Consider `COc1cc(F)ccc1-c1nc2c(n1C(C)C)C1(C(=O)Nc3cc(Cl)ccc31)N(c1cc(Cl)ccc1C)C2=O` (centres unmarked) [Example 4, 6-chloro-5′-(5-chloro-2-methylphenyl)-2′-(4-fluoro-2-methoxyphenyl)-3′-isopropyl-3′H-spiro[dihydroindole-3,4′-pyrrolo[3,4-d]imidazole]-2,6′(5′H)-dione], for which the “inhibitory effect on human osteosarcoma cell line SJSA-1 compared with positive control compound HDM201” value is on record as “better”.
On to `COc1ccc(-c2nc3c(n2C(C)C)C2(C(=O)Nc4cc(Cl)ccc42)N(c2cc(Cl)ccc2C)C3=O)c(OC)c1` (centres unmarked) [Example 9, 6-chloro-5′-(5-chloro-2-methylphenyl)-2′-(2,4-dimethoxyphenyl)-3′-isopropyl-3′H-spiro[dihydroindole-3,4′-pyrrolo[3,4-d]imidazole]-2,6′(5′H)-dione], for which the “inhibitory effect on human osteosarcoma cell line SJSA-1 compared with positive control compound HDM201” value is “better”.
`COc1ccc(C#N)cc1-c1nc2c(n1C(C)C)C1(C(=O)Nc3cc(Cl)ccc31)N(c1cc(Cl)ccc1C)C2=O` (centres unmarked) [Example 13, 3-(6-chloro-5′-(5-chloro-2-methylphenyl)-3′-isopropyl-2,6′-dioxo-5′,6′-dihydro-3′H-spiro[dihydroindole-3,4′-pyrrolo[3,4-d]imidazole]-2′-yl)-4-methoxybenzonitrile]: the “inhibitory effect on human osteosarcoma cell line SJSA-1 compared with positive control compound HDM201” value is listed as “better”.
Regarding `COc1cc(N(C)C)ccc1-c1nc2c(n1C(C)C)C1(C(=O)Nc3cc(Cl)ccc31)N(c1cc(Cl)ccc1C)C2=O` (centres unmarked) [Example 23, 6-chloro-5′-(5-chloro-2-methylphenyl)-2′-(4-(dimethylamino)-2-methoxyphenyl)-3′-isopropyl-3′H-spiro[dihydroindole-3,4′-pyrrolo[3,4-d]imidazole]-2,6′(5′H)-dione], the “inhibitory effect on human osteosarcoma cell line SJSA-1 compared with positive control compound HDM201” value was “better”.
For the molecule `COc1cc(C)ccc1-c1nc2c(n1C(C)C)C1(C(=O)Nc3cc(Cl)ccc31)N(c1cc(Cl)ccc1C)C2=O` (centres unmarked) [Example 24, 6-chloro-5′-(5-chloro-2-methylphenyl)-3′-isopropyl-2′-(2-methoxy-4-methylphenyl)-3′H-spiro[dihydroindole-3,4′-pyrrolo[3,4-d]imidazole]-2,6′(5′H)-dione], the “inhibitory effect on human osteosarcoma cell line SJSA-1 compared with positive control compound HDM201” value is “better”.
As for `CNc1ccc(-c2nc3c(n2C(C)C)C2(C(=O)Nc4cc(Cl)ccc42)N(c2cc(Cl)ccc2C)C3=O)c(OC)c1` (centres unmarked) [Example 25], the “inhibitory effect on human osteosarcoma cell line SJSA-1 compared with positive control compound HDM201” value is given as “better”.
Consider `COc1cc(C(C)C)ccc1-c1nc2c(n1C(C)C)C1(C(=O)Nc3cc(Cl)ccc31)N(c1cc(Cl)ccc1C)C2=O` (centres unmarked) [Example 32, 6-chloro-5′-(5-chloro-2-methylphenyl)-3′-isopropyl-2′-(4-isopropyl-2-methoxyphenyl)-3′H-spiro[dihydroindole-3,4′-pyrrolo[3,4-d]imidazole]-2,6′(5′H)-dione], for which the “inhibitory effect on human osteosarcoma cell line SJSA-1 compared with positive control compound HDM201” value is given as “better”.

Source of the values: patent publication US11339171B2, “MDM2 inhibitors” (Gan & Lee Pharmaceuticals, priority 2017, dated 2022).
